Source: US4302578A, “Cephalosporin antibiotics” (priority 1971, dated 1981)
Entries after “also recorded” stand apart in the source; their conditions may differ. Where a name gives a salt, the structure may show the parent alone. Read-outs that look alike come from different tables or passages of the source.

Assays:
cephalosporinases = assay: resistance to cephalosporinases / penicillinase; format: biochemical
certain microorganisms = assay: resistance to bacterial inactivation / enzymatic degradation (summary statements); format: biochemical
Source text: Bacterial Inactivation With 810A: An in vitro study was designed to determine the resistance of Antibiotic 810A, to bacterial inactivation as compared with cephalosporin C, cephaloridine and cephalothin.

[1] = tested on: gram-negative and gram-positive bacteria; assay: in vitro antibacterial activity (summary statements); format: cell-based
[2] = tested on: gram-negative and gram-positive infections; assay: in vivo protection against infection (summary statements); set-up: species or system mice; conditions: for protection against infections, oral: given orally; for in vivo protection / activity: mouse; for protection: 4000 mg. × dose, subcutaneous, infection not marked
Source text: (§1) The method employed in this characterization is as follows: Female white Swiss mice, average weight 20-23 grams, were infected intraperitoneally with 3-20 times the number of organisms calculated to be lethal for 50% of the infected control animals (3-20 LD50 doses). At the time of infection and again six hours later, therapy was given by the designated route. Controls of the virulence of the culture and the toxicity of the antibiotic for uninfected mice were included in the tests. Seven days after infection the test was considered complete and the amount of the antibiotic (I) that would be required to protect 50% of the infected and treated animals was calculated by the method of Knudsen and Curtis; J. Amer. Stat. Assoc. Vol. 42: page 282 (1947).
The method employed in these studies is the same as described above with regard to the in vivo characterization of 810A.

[3] = toxicity for uninfected mice; conditions: mouse, in vivo
Source text: as §1

Vibrio percolans MB-1272 = assay: disc-plate bioassay; conditions: for zone of inhibition at 100 µg/mL / zone of inhibition at 5 µg/mL: Comamonas terrigena
Proteus morganii 356 [4] = assay: mouse protection test, clinical isolate resistant to cephalosporins; format: in vivo, mice; conditions: Subcutaneous Route × 2 Doses (average of Two Trials)
Source text: as §1
Administration was by subcutaneous injection. At the completion of the test period, usually seven days after administration, the amount of product required to protect 50% of the mice (ED50) from this otherwise fatal injection was calculated:
In addition to the aforementioned in vivo trails of the product, a clinical isolate of Proteus morganii 356 which is resistant to cephalosporins and capable of degrading cephalosporin C, was employed in a mouse protection test performed in the same manner as reported above.

[5] = tested on: Aerobacter cloacae (MB-2646); assay: bacterial inactivation, cell-free extract; format: biochemical
Description: The ability of Antibiotic 810A and cephalosporin C to withstand the degradative effect of the culture Aerobacter cloacae (MB-2646) was also determined. This culture is gram-negative and resistant to cephalosporin C. […] The source of the inactivating substance is a 1:160 dilution of the filtrate of an 18 hour 37° C. shake culture of Aerobacter cloacae MB-2646 in nutrient broth containing 0.2% yeast extract. Table XIV, infra, indicates the percent inactivation of Antibiotic 810A, cephalothin, cephaloridine and cephalosporin C on Vibrio percolans (MB-1272) via this method:
Using the same assay procedure as described above, Table XV, infra, indicates the relative resistance of Antibiotic 810A to enzymatic inactivation by Aerobacter cloacae. The starting concentration is 250 μg./ml. Results are expressed in μg./ml.

Escherichia coli 236 = assay: bacterial inactivation; conditions: four hours incubation; on B. subtilis (MB-964); 240 min
Description: (§2) These cultures are: Escherichia coli 236, Proteus morganii 251, Proteus morganii 356 and Proteus mirabilis 241. […] In conducting the assay individual mixtures of the organisms and one of the antibiotic were sampled after four hours incubation and assayed for residual antibiotic activity. The procedure is the same assay method as described above against Alcaligenes faecalis MB-9 and A. viscosus MB-12.

Proteus morganii 251 = assay: bacterial inactivation
Description: as §2

Proteus mirabilis 241 = assay: bacterial inactivation
Description: as §2

Proteus morganii 356 [6] = assay: bacterial inactivation
Description: as §2

penicillinase = conditions: cited from earlier work
[7] = tested on: Alcaligenes faecalis (MB-9); assay: bacterial inactivation, washed bacterial cells
[8] = tested on: gram-negative and gram-positive bacteria; conditions: cited from earlier work
[9] = tested on: Pseudomonas stutzeri MB-1231; assay: disc-plate bioassay of derivatives; format: cell-based; conditions: Stutzerimonas stutzeri, MB1231, equal concentrations, 100γ/ml (Example 71); read-out: disc zone size
Source text: (§3) Bioassay: The disc zone sizes in the following table are expressed in mm. for 100 γ/ml of antibiotic.
(§4) Bioassay: The disc zone sizes in the following table are expressed in mm. for equal concentrations of antibiotic.

Escherichia coli W-MB-60 = assay: disc-plate bioassay of derivatives; format: cell-based; conditions: 100 γ/ml (Example 78)
Source text: as §3, §4

[10] = tested on: Salmonella gallinarum MB-1287; assay: disc-plate bioassay of derivatives; format: cell-based; conditions: 100γ/ml (Example 77)
Source text: as §4

[11] = urinary excretion and blood levels; format: in vivo, mice; conditions: mouse
[12] = isoelectric point and pH stability; format: physicochemical; conditions: for stability, low pH: pH 1.5
[13] = four hours incubation, on B. subtilis (MB-964), 240 min
[14] = 2 Hour Incubation, assayed on V. percolans (MB-1272) plates

COC(=Cc1ccc(OS(=O)(=O)O)cc1)C(=O)OCC1=C(C(=O)O)N2C(=O)[C@](NC(=O)CCC[C@@H](N)C(=O)O)(OC)[C@H]2SC1 [7β-(D-5-amino-5-carboxyvaleramido)-3-(α-methoxy-p-sulfooxycinnamoyloxymethyl)-7-methoxy-3-cephem-4-carboxylic acid]
resistance to cephalosporinases (cephalosporinases): greater resistance to cephalosporinases than cephalothin
resistance to inactivation / enzymatic degradation (certain microorganisms): more resistant to enzymatic degradation than cephalosporin C
bactericidal action / development of resistance [1]: bactericidal
protection against infections, oral [2]: protects against infections due to Proteus vulgaris
in vivo protection / activity [2]: when administered subcutaneously, it is effective against a variety of gram-negative and gram-positive infections
toxicity [3]: low order of toxicity in mice

CO[C@@]1(NC(=O)CCC[C@@H](N)C(=O)O)C(=O)N2C(C(=O)O)=C(C)CS[C@@H]21 [7β-(D-5-amino-5-carboxyvaleramido)-3-methyl-7-methoxy-3-cephem-4-carboxylic acid]
Bioactivity (Vibrio percolans MB-1272; 50 ug/ml): Inactive at 50 ug/ml

O=C(Cc1cccs1)N[C@@H]1C(=O)N2C(C(=O)[O-])=C(C[n+]3ccccc3)CS[C@H]12 [Cephaloridine]
ED50 (Proteus morganii 356 [4]): 9,270 μg
Percent Inactivation After Incubation With Cell-Free Extract ([5]; aerobacter cloacae cell-free extract, 2 h): 96%
protection [2]: failed to protect at 4000 mg. × dose

CC(=O)OCC1=C(C(=O)O)N2C(=O)[C@@H](NC(=O)CCC[C@@H](N)C(=O)O)[C@H]2SC1 [Cephalosporin C]
percent inactivation (Escherichia coli 236): > 99%
percent inactivation (Proteus morganii 251; [13]): > 99%
percent inactivation (Proteus mirabilis 241; [13]): 72%
percent inactivation (Proteus morganii 356 [6]; [13]): > 99%
Percent Inactivation After Incubation With Cell-Free Extract [5, 14]: 96%
resistance to / degradation by penicillinase (penicillinase): possesses an inherent resistance to penicillinase
Percent Inactivation After Incubation With Washed Bacterial Cells ([7]; 3 Hour Incubation, assayed on V. percolans (MB-1272) plates): > 99%
Percent Inactivation After Incubation With Washed Bacterial Cells ([7]; 3 Hours Incubation, assayed on B. subtilis (MB-964) plates): > 99%
antibacterial activity (background, words) [8]: only moderately active

CC(=O)OCC1=C(C(=O)O)N2C(=O)[C@@H](NC(=O)Cc3cccs3)[C@H]2SC1 [Cephalothin]
ED50 (Proteus morganii 356 [4]): 20,000 μg
Percent Inactivation After Incubation With Cell-Free Extract [5, 14]: 66%
protection [2]: failed to protect at 4000 mg. × dose

CO[C@@]1(NC(=O)CCC[C@@H](N)C(=O)O)C(=O)N2C(C(=O)O)=C(COC(N)=O)CS[C@@H]21 [Disodium Salt of 842A]
zone of inhibition at 100 µg/mL [9]: 21 mm
disc zone size (Escherichia coli W-MB-60): 18 mm
disc zone size [10]: 27 mm
zone of inhibition at 100 µg/mL (Vibrio percolans MB-1272; MB1272, read-out: disc zone size, 100γ/ml (Example 77)): > 35 mm
zone of inhibition at 100 µg/mL (Vibrio percolans MB-1272; MB1272, read-out: disc zone size, 100 γ/ml (Example 78)): 23 mm
zone of inhibition at 5 µg/mL (Vibrio percolans MB-1272; MB1272, read-out: disc zone size, Example 70, (5γ/ml) printed at end of line, head 100γ/ml): 18 mm
zone of inhibition at 5 µg/mL (Vibrio percolans MB-1272; MB1272, read-out: disc zone size, equal concentrations, 5γ/ml (Example 71)): 18 mm

CO[C@@]1(NC(=O)CCC[C@@H](N)C(=O)O)C(=O)N2C(C(=O)O)=C(COC(N)=O)CS[C@@H]21 [Example 842A]
blood levels / excretion ([11]; in vivo): produces rapid blood levels; also recorded: rapidly excreted in the urine
dose excreted at 6 h ([11]; urine, within six hours after administration, read-out: eliminated in the urine): ~100%
stability, high pH [12]: unstable above pH 7
stability, high pH ([12]; listed as Antibiotic 842A): unstable above pH 9.0
stability, low pH [12]: stable at pH 1.5
stability, low pH ([12]; listed as Antibiotic 842A): relatively stable at pH 1.5
resistance to inactivation / enzymatic degradation (certain microorganisms): more resistant to enzymatic degradation than cephalosporin C
resistance to inactivation / enzymatic degradation (certain microorganisms; listed as Antibiotic 842A): more stable than the latter against certain microorganisms; also recorded: more resistant than cephalosporin C to inactivation by A. faecalis, A. viscosus, Escherichia coli 236, Proteus morganii 251, Proteus morganii 236 and Proteus mirabilis 241
percent inactivation (Escherichia coli 236): 38%
percent inactivation (Proteus morganii 251; bacterial cells, 4 h): 80%
percent inactivation (Proteus mirabilis 241; bacterial cells, 4 h): 5%
percent inactivation (Proteus morganii 356 [6]; bacterial cells, 4 h): 69%
antibacterial activity [1]: exhibits activity against Salmonella schottmuelleri 3010, S. gallinarum and S. typhosa
bactericidal action / development of resistance [1]: resistance to it develops slowly and it is bactericidal
antibacterial activity ([1]; listed as Antibiotic 842A): inhibits the growth of the following gram-negative bacteria: Escherichia coli, Proteus vulgaris, Alcaligenes faecalis, Brucella bronchiseptica, Salmonella gallinarum, Vibrio percolans and Xanthomonas vesicatoria; also recorded: inhibits the growth of the following gram-positive bacteria: Staphylococcus aureus, Sarcina lutea and Bacillus subtilis; also recorded: enhanced activity against gram-negative microorganisms
protection against infections, oral [2]: protects against infections due to Paracolobactrum arizoniae 3270, Proteus vulgaris 1810, and Salmonella schottmuelleri 3010
in vivo protection / activity ([2]; listed as Antibiotic 842A): protects against infection with three species of Proteus, two of Salmonella, one strain of Escherichia coli, two of Klebsiella and also against Paracolobactrum arizoniae, Aerobacter aerogenes, Pasteurella multocida and Diplococcus pneumoniae E400; also recorded: exhibits a significant in vivo gram-negative effect with a potency which, in general, is greater than cephalothin
Percent Inactivation After Incubation With Washed Bacterial Cells ([7]; 4 Hour Incubation, assayed on B. subtilis (MB-964) plates): 0%

CC1(C)S[C@@H]2[C@H](NC(=O)Cc3ccccc3)C(=O)N2[C@H]1C(=O)O [Penicillin G]
resistance to / degradation by penicillinase (penicillinase): in the presence of penicillinase it is degraded to a form which is ineffective against most pathogens
